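In this assay, cells in 96-well plates receive the compound at five concentrations for 48 hours. Endpoints are linearly interpolated between the surrounding concentrations. Here, GI50 denotes the concentration required for 50% inhibition of growth.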 The source made the active and inactive calls. Rule as the data show it: active = GI50 up to about 1.1 µM and inactive = higher. Some results are limits rather than exact numbers.

Experiment in all cases: growth of human tumour cells (NCI), 48 h
Assay [1] has as its system CAKI-1.
Assay [2] concerns M14.
Assay [3] has as its system A549.
Assay [4] has as its system UO-31.
Assay [5] has as its system NCI/ADR-RES.
Assay [6] has as its system HCC 2998.
Assay [7] deals with OVCAR-5.
In assay [8] the test system is T47D.
The subject of assay [9] is DU-145.
Assay [10] relates to OVCAR-3.
The test system of assay [11] is Malme-3M.
Assay [12] deals with OVCAR-8.
In assay [13] the test system is MDA-MB-231.
For assay [14], the system named is SF-268.
The subject of assay [15] is HCT-116.
Assay [16] deals with SN12C.
In assay [17] the test system is PC-3.
Assay [18] relates to SK-OV-3.
Assay [19] relates to COLO 205.
The subject of assay [20] is MDA-N.

Take `CC(C)(CN1CCCCC1)C(/C=C/c1ccc(Cl)cc1)=N\NC(=O)N/N=C(/C=C/c1ccc(Cl)cc1)C(C)(C)CN1CCCCC1`: the GI50 in [1] is 2.39 µM (inactive); in assay [2], 3.41 µM (inactive); in assay [3] it was 7.28 µM (inactive); in assay [4] it was 3.49 µM (inactive); in [5] it was 3.86 µM (inactive); in [6] it was 5.51 µM (inactive). The GI50 in assay [7] was 3.95 µM (inactive); in assay [8], 3.44 µM (inactive); in assay [9], 6.01 µM (inactive); in [10] it was 3.21 µM (inactive); in [11], 8.38 µM (inactive); in assay [12], 4.38 µM (inactive). The GI50 in assay [13] was 2.65 µM (inactive); in assay [14], 5.46 µM (inactive); in assay [15] it was 3.19 µM (inactive); in [16], 3.85 µM (inactive); in assay [17], 7.24 µM (inactive); in assay [18], 6.68 µM (inactive). Further, the GI50 was 4.22 µM (inactive) in assay [19] and 3.34 µM (inactive) in assay [20].
As to `Nc1ccc(Sc2c3ccccc3nc3ccccc23)cc1`, the GI50 in assay [1] was 18.5 µM (inactive); in [2] it was 15.7 µM (inactive); in assay [3], 33.3 µM (inactive); in assay [4], 17.5 µM (inactive); in assay [5], 7.73 µM (inactive); in assay [6], 24.4 µM (inactive). In addition, the GI50 in assay [7] is 21.8 µM (inactive); in assay [8] it was 2.06 µM (inactive); in assay [9], 13.7 µM (inactive); in assay [10], 15.6 µM (inactive); in assay [11], 19.7 µM (inactive); in assay [12] it was 13.8 µM (inactive). Further, the GI50 in assay [13] was 14.7 µM (inactive); in assay [14] it was 18.5 µM (inactive); in assay [15], 10.8 µM (inactive); in assay [16], 18.5 µM (inactive); in assay [17], 13.1 µM (inactive); in assay [18] it was 22.3 µM (inactive). Moreover, the figures for the GI50 in assay [19] and in [20] were 11.5 µM (inactive) and 12.2 µM (inactive), respectively.
On to `C[Si](C)(C)C#CCO[Si](C)(C)C`, for which the GI50 was > 78.7 µM (inactive) in assay [1]; > 74.8 µM (inactive) in [2]; > 100 µM (inactive) in assay [3]; > 100 µM (inactive) in assay [4]; > 100 µM (inactive) in [5]; > 100 µM (inactive) in [6]. Besides, the GI50 in assay [7] is > 100 µM (inactive); in assay [8] it was > 70.6 µM (inactive); in [9], > 100 µM (inactive); in assay [10], > 94.2 µM (inactive); in assay [11], > 100 µM (inactive); in assay [12], 36.3 µM (inactive). The GI50 is > 50.2 µM (inactive) in [13]; 34.2 µM (inactive) in assay [14]; 65 µM (inactive) in assay [15]; > 100 µM (inactive) in assay [16]; > 100 µM (inactive) in assay [17]; > 100 µM (inactive) in [18]. Further, the GI50 is > 54.3 µM (inactive) in assay [19] and 49.8 µM (inactive) in [20].
As to `O=C(C=P(c1ccccc1)(c1ccccc1)c1ccccc1)c1ccc(-c2cccs2)cc1`, the GI50 in assay [1] was 4.91 µM (inactive); in [2] it was 2.57 µM (inactive); in assay [3], 3.17 µM (inactive); in assay [4], 3.48 µM (inactive); in assay [5] it was 4.48 µM (inactive); in [6] it was 2.83 µM (inactive). Also, the GI50 in assay [7] was 5 µM (inactive); in assay [8], 2.33 µM (inactive); in [9], 8.73 µM (inactive); in assay [10], 2.9 µM (inactive); in assay [11], 4.46 µM (inactive); in [12], 4.86 µM (inactive). Also, the GI50 in [13] was 9.79 µM (inactive); in assay [14], 12.9 µM (inactive); in assay [15] it was 3.74 µM (inactive); in [16], 4.98 µM (inactive); in assay [17], 4.12 µM (inactive); in assay [18], 5.66 µM (inactive). The GI50 in [19] is 0.671 µM (active); in assay [20] it was 3.22 µM (inactive).
On to `O=C1O[C@]2(c3ccccc3)C(c3ccccc3)=C[C@]2(C(=O)c2ccccc2)C1=O`, for which the GI50 is 36.9 µM (inactive) in [1]; 32.3 µM (inactive) in [2]; 37.2 µM (inactive) in [3]; 27.9 µM (inactive) in assay [4]; 31.6 µM (inactive) in [5]; 20.3 µM (inactive) in assay [6]. The GI50 in [7] is > 100 µM (inactive); in [8], 1.12 µM (inactive); in [9] it was 0.292 µM (active); in assay [10], 32.6 µM (inactive); in assay [11], 65.2 µM (inactive); in assay [12] it was 29.8 µM (inactive). The GI50 in [13] is 32.3 µM (inactive); in assay [14], 38 µM (inactive); in [15] it was 28.6 µM (inactive); in assay [16] it was 33.4 µM (inactive); in assay [17] it was 39.1 µM (inactive); in assay [18] it was 42.4 µM (inactive). In addition, the GI50 in assay [19] is 48.2 µM (inactive); in [20], 31.9 µM (inactive).
With `CC(C)(C)c1nc2c(o1)C(=O)c1ccccc1C2=O`, the GI50 in [1] is 2.78 µM (inactive); in [2], 0.759 µM (active); in assay [3], 3.53 µM (inactive); in [4], 2.81 µM (inactive); in [5], 0.447 µM (active); in assay [6], 4.25 µM (inactive). For the same molecule, the GI50 in [7] is 2.38 µM (inactive); in assay [8], 0.627 µM (active); in assay [9], 1.1 µM (active); in assay [10] it was 0.721 µM (active); in assay [11] it was 0.574 µM (active); in assay [12] it was 0.92 µM (active). For the same molecule, the GI50 in [13] is 0.385 µM (active); in assay [14], 2.47 µM (inactive); in assay [15], 0.838 µM (active); in [16] it was 0.959 µM (active); in assay [17] it was 0.505 µM (active); in [18] it was 4.98 µM (inactive). In addition, the results for the GI50 in assay [19] and in [20] were 4.81 µM (inactive) and 0.199 µM (active), respectively.
Consider `CC(C)C(C/C=C1/CC(CO)(COC(=O)CC(C(C)C)C(C)C)OC1=O)C(C)C` (stereo not given), for which the GI50 in assay [1] is 2.15 µM (inactive); in assay [2], 12.5 µM (inactive); in assay [3] it was 0.298 µM (active); in assay [4] it was 2.86 µM (inactive); in assay [5] it was 16 µM (inactive); in [6], 2.89 µM (inactive). The GI50 is 9.42 µM (inactive) in assay [7]; 0.982 µM (active) in assay [8]; 13.2 µM (inactive) in [9]; 13.8 µM (inactive) in assay [10]; 10.7 µM (inactive) in assay [11]; 16.1 µM (inactive) in assay [12]. Also, the GI50 is 4.21 µM (inactive) in assay [13]; 10.6 µM (inactive) in assay [14]; 16.2 µM (inactive) in [15]; 14.2 µM (inactive) in [16]; 4.85 µM (inactive) in assay [17]; 16.7 µM (inactive) in [18]. Further, the GI50 in [19] was 0.0811 µM (active); in [20] it was 11.5 µM (inactive).
Regarding `Cc1[nH]n(-c2nc3c(c(=O)[nH]2)CCC3)c(=O)c1CCO`, the GI50 in [1], in assay [2], in assay [3], in assay [4], in assay [5] and in [6] was > 100 µM (inactive) in each case. Besides, the GI50 in assay [7], in assay [8], in [9], in [10], in [11] and in assay [12] was > 100 µM (inactive) throughout. The GI50 in assay [13], in assay [14], in assay [15], in [16], in [17] and in assay [18] was > 100 µM (inactive) throughout. In addition, the GI50 in [19] and in assay [20] was > 100 µM (inactive) each time.
Consider `CC1(C)O[C@@H]2COC(=O)[C@@H]2O1`, for which the GI50 in assay [1], in assay [2], in assay [3], in [4], in assay [5] and in assay [6] was > 100 µM (inactive) throughout. The GI50 in [7], in assay [8], in assay [9], in assay [10], in assay [11] and in [12] was > 100 µM (inactive) in each case. Moreover, the GI50 in assay [13], in assay [14], in assay [15], in assay [16], in assay [17] and in [18] was > 100 µM (inactive) in each case. Moreover, the GI50 in assay [19] and in assay [20] was > 100 µM (inactive) throughout.
Consider `O=C(/C=C/c1ccccc1)Oc1ccc(C(=O)/C=C/c2ccc(Cl)cc2)cc1`, for which the GI50 is > 100 µM (inactive) in assay [1]; > 100 µM (inactive) in [2]; > 100 µM (inactive) in [3]; 63.8 µM (inactive) in assay [4]; 46.5 µM (inactive) in assay [5]; 41.3 µM (inactive) in assay [6]. Further, the GI50 in assay [7] is > 100 µM (inactive); in assay [8], 66.7 µM (inactive); in assay [9] it was 59.8 µM (inactive); in [10], > 100 µM (inactive); in assay [11] it was > 100 µM (inactive); in [12], 42.3 µM (inactive). Also, the GI50 in assay [13] is > 100 µM (inactive); in assay [14] it was 82.2 µM (inactive); in assay [15], 83.4 µM (inactive); in assay [16], > 100 µM (inactive); in assay [17], 59.7 µM (inactive); in assay [18] it was > 100 µM (inactive). The GI50 in assay [19] is > 100 µM (inactive); in [20], 37.2 µM (inactive).

(Values after ChEMBL document CHEMBL1201862, “PubChem BioAssay data set” (2004).)
